Species: Rattus norvegicus
Test: DrugMatrix - Regimen: Daily Repeat
Format: toxicity, organism-based, Sprague-Dawley
Parameters: regimen Daily Repeat, gender Male, age 6-8 weeks
Conditions: in vivo, po, route oral GAVAGE, vehicle .5 % CMC; for ABSOLUTE BASOPHIL / ABSOLUTE EOSINOPHIL / ABSOLUTE LYMPHOCYTE / ABSOLUTE MONOCYTE / ABSOLUTE SEGMENTED NEUTROPHIL / BASOPHIL / EOSINOPHIL / ERYTHROCYTE COUNT / HEMATOCRIT / HEMOGLOBIN / LEUKOCYTE COUNT / LYMPHOCYTE / MEAN CORPUSCULAR HEMOGLOBIN / MEAN CORPUSCULAR HEMOGLOBIN CONCENTRATION / MEAN CORPUSCULAR VOLUME / MONOCYTE / NEUTROPHIL / NUCLEATED RED BLOOD CELLS / PLATELET COUNT: tissue Blood
[1] = […], 72 h, dose 2.1 mg/Kg, dose level Low, time 3 day
[2] = […], 72 h, tissue Plasma, dose 2.1 mg/Kg, dose level Low, time 3 day
[3] = […], 120 h, dose 2.1 mg/Kg, dose level Low, time 5 day
[4] = […], 120 h, tissue Plasma, dose 2.1 mg/Kg, dose level Low, time 5 day

## C=C1CC[C@H](O)C/C1=C/C=C1\CCC[C@]2(C)[C@@H]([C@H](C)CCCC(C)C)CC[C@@H]12 [CHOLECALCIFEROL]
8 mg/kg, 120 h, tissue Plasma, dose level High, time 5 day
  URIC ACID: 2.97 mg/dL
[1]
  ABSOLUTE BASOPHIL: 0 CELLS/uL
  ABSOLUTE EOSINOPHIL: 0 CELLS/uL
  ABSOLUTE LYMPHOCYTE: 13778.67 CELLS/uL
  ABSOLUTE MONOCYTE: 303 CELLS/uL
  ABSOLUTE SEGMENTED NEUTROPHIL: 1018.33 CELLS/uL
  BASOPHIL: 0%
  EOSINOPHIL: 0%
  ERYTHROCYTE COUNT: 5.26 x10E6/uL
  HEMATOCRIT: 33.23%
  HEMOGLOBIN: 13.23 G/DL
  LEUKOCYTE COUNT: 15.1 x10E3/uL
  LYMPHOCYTE: 91.33%
  MEAN CORPUSCULAR HEMOGLOBIN: 25.17 pg
  MEAN CORPUSCULAR HEMOGLOBIN CONCENTRATION: 39.83 G/DL
  MEAN CORPUSCULAR VOLUME: 63.27 fL
  MONOCYTE: 2%
  NEUTROPHIL: 6.67%
  NUCLEATED RED BLOOD CELLS: 0.33 /100WBC
  PLATELET COUNT: 1338.67 x10E3/uL
[2]
  ALANINE AMINOTRANSFERASE: 64.33 u/L
  ALBUMIN: 4.5 G/DL
  ALKALINE PHOSPHATASE: 325 u/L
  ASPARTATE AMINOTRANSFERASE: 90.33 u/L
  BLOOD UREA NITROGEN: 18 mg/dL
  CARBON DIOXIDE: 24 mmol/L
  CHLORIDE: 102.33 MEQ/L
  CHOLESTEROL: 85.67 mg/dL
  CREATINE PHOSPHOKINASE: 170.67 u/L
  CREATININE: 0.22 mg/dL
  GLUCOSE: 154.33 mg/dL
  LACTATE DEHYDROGENASE: 246.33 u/L
  LIPASE: 9.33 u/L
  PHOSPHORUS: 15.17 mg/dL
  POTASSIUM: 7.26 MEQ/L
  SODIUM: 149.17 MEQ/L
  TOTAL BILIRUBIN: 0.33 mg/dL
  TOTAL PROTEIN: 6.3 G/DL
  URIC ACID: 1.63 mg/dL
[3]
  ABSOLUTE BASOPHIL: 0 CELLS/uL
  ABSOLUTE EOSINOPHIL: 46.67 CELLS/uL
  ABSOLUTE LYMPHOCYTE: 13112 CELLS/uL
  ABSOLUTE MONOCYTE: 47.33 CELLS/uL
  ABSOLUTE SEGMENTED NEUTROPHIL: 1427.33 CELLS/uL
  BASOPHIL: 0%
  EOSINOPHIL: 0.33%
  ERYTHROCYTE COUNT: 5.69 x10E6/uL
  HEMATOCRIT: 37.6%
  HEMOGLOBIN: 14.5 G/DL
  LEUKOCYTE COUNT: 14.63 x10E3/uL
  LYMPHOCYTE: 89.67%
  MEAN CORPUSCULAR HEMOGLOBIN: 25.53 pg
  MEAN CORPUSCULAR HEMOGLOBIN CONCENTRATION: 38.57 G/DL
  MEAN CORPUSCULAR VOLUME: 66.17 fL
  MONOCYTE: 0.33%
  NEUTROPHIL: 9.67%
  NUCLEATED RED BLOOD CELLS: 0.33 /100WBC
  PLATELET COUNT: 1071 x10E3/uL
[4]
  ALANINE AMINOTRANSFERASE: 53 u/L
  ALBUMIN: 4.6 G/DL
  ALKALINE PHOSPHATASE: 301.33 u/L
  ASPARTATE AMINOTRANSFERASE: 84 u/L
  BLOOD UREA NITROGEN: 19.67 mg/dL
  CARBON DIOXIDE: 31.67 mmol/L
  CHLORIDE: 97.33 MEQ/L
  CHOLESTEROL: 72.33 mg/dL
  CREATINE PHOSPHOKINASE: 267.33 u/L
  CREATININE: 0.24 mg/dL
  GLUCOSE: 143.33 mg/dL
  LACTATE DEHYDROGENASE: 287 u/L
  LIPASE: 8.67 u/L
  PHOSPHORUS: 11.33 mg/dL
  POTASSIUM: 6.64 MEQ/L
  SODIUM: 141.97 MEQ/L
  TOTAL BILIRUBIN: 0.2 mg/dL
  URIC ACID: 1.67 mg/dL

Reference: ChEMBL document CHEMBL3885881, “DrugMatrix”
